From US9802949B2, “Fused ring compounds as hepatitis C virus inhibitors, pharmaceutical compositions and uses thereof” (SUNSHINE LAKE PHARMA CO., LTD., priority 2012, dated 2017)

How the values were obtained:
[1] = tested on: HCV GT1b replicon; assay: HCV replicon assay (Huh-7 cells stably transfected with HCV GT1b replicon; luciferase or NEO gene qPCR readout); format: cell-based; details: Hepatitis C virus, HCV 1b genotype replicon, 72 hours
Description: (§1) HCV Replicon System was utilized as a screening model in the present disclosure to evaluate the antivirus effects of the compounds disclosed herein against HCV. HCV Replicon assay was first described in Science, 1999, 285 (5424), 110-3. […] To determine the potential anti-HCV effects of the test compounds, luciferase assay and antibiotic Neomycin resistance gene were tested according to the method described in Science. 1999 Jul. 2; 285 (5424), 110-3 and J. Virol. 2003 March; 77 (5), 3007-19.
(§2) In a word, the compounds disclosed herein were tested by using human hepatic carcinoma cell line Huh-7 which is transfected stably with HCV GT1a, GT1b or GT2a replicon respectively, and resistant cells of Y93H, L31F, P32L or I302V and wild-type cells HCV 1b. HCV Replicon System disclosed herein contains G418 resistance gene NEO and Luciferase Reporter Gene, and the level of HCV replication in host cells is detected and characterized by the expression level of the NEO gene or Luciferase Reporter Gene, so the effects of the compounds herein inhibit HCV replication can be evaluated in this system. In this article, a real-time quantitative polymerase chain reaction (qPCR) method was used to detect NEO gene expression level, and chemiluminescence method was used to test Luciferase Reporter Gene expression level.
(§3) 1. Test Method for Measuring EC50 of the Compounds Based on Luciferase Assay.
(§4) The Huh-7 cells transfected with HCV replicons system were seeded into 96-well plates (8,000 cells in 125 μL/well) respectively; each test compound was diluted to desired concentration using 5-fold serial dilutions protocol, 10 doses in duplicate, and added to wells with POD™ 810 Plate Assembler. The plates were incubated in a CO2 incubator for 72 hours; after that, 40 μL of Luciferase assay substrate (Promega Bright-Glo) was added to each well, and detected by a chemiluminescence detection system (Topcount Microplate Scintillation and Luminescence Counter) 5 minutes later; the EC50 (half-maximal effective concentration, concentration for 50% of maximal effect) values of test compounds were analyzed by GraphPad Prism software. In this paper, experiments were repeated twice and set the wells without compounds as negative control.
(§5) 2. Test Method for Measuring EC50 of the Compounds by Detecting Antibiotic G418 Resistance Gene NEO Gene.
(§6) The Huh-7 cells transfected with HCV replicons system were seeded into 96-well plates (8,000 cells in 125 μL/well) respectively; each test compound was diluted to desired concentration using 5-fold serial dilutions protocol, 10 doses in duplicate, and added to each well with POD™ 810 Plate Assembler; the cells were incubated in a CO2 incubator for 72 hours; and detected the expression level of the NEO gene expression with real-time quantitative PCR later; the EC50 (half-maximal effective concentration, concentration for 50% of maximal effect) values of test compounds were analyzed by GraphPad Prism software, respectively. In this paper, experiments were repeated twice and set the wells without compounds as negative control.

[2] = tested on: HCV GT1a replicon; assay: HCV replicon assay (Huh-7 cells stably transfected with HCV GT1a replicon; luciferase or NEO gene qPCR readout); format: cell-based; details: Hepatitis C virus, HCV 1a genotype replicon, 72 hours
Description: as §1, §2, §3, §4, §5, §6

SMILES | EC50 [1] [pM] | EC50 [2] [pM]
COC(=O)N[C@H](C(=O)N1CCC[C@H]1c1ncc(-c2ccc(-c3ccc(-c4ccc5nc([C@@H]6CCCN6C(=O)[C@@H](NC(=O)OC)C(C)C)[nH]c(=O)c5c4)c4c3C3CC(F)(F)C3C4)cc2)[nH]1)C(C)C (stereo partly drawn) [Example 28] | 8 | 22
COC(=O)N[C@H](C(=O)N1CCC[C@H]1c1ncc(-c2ccc(-c3ccc(-c4cnc([C@@H]5CCCN5C(=O)[C@@H](NC(=O)OC)C(C)C)[nH]4)c4c3C3CC(=O)CC3C4)cc2)[nH]1)C(C)C (stereo partly drawn) [Example 34] | 22 | 75
COC(=O)N[C@H](C(=O)N1CCC[C@H]1c1ncc(-c2ccc(-c3ccc(-c4ccc5nc([C@@H]6CCCN6C(=O)[C@@H](NC(=O)OC)C(C)C)[nH]c5c4)c4c3C3CCC3C4)cc2)[nH]1)C(C)C (stereo partly drawn) [Example 4] | 20 | 60
COC(=O)NC(C(=O)N1CCCC1c1nc2ccc(-c3ccc(-c4ccc(-c5cnc(C6C7CCC(C7)N6C(=O)C(NC(=O)OC)C(C)C)[nH]5)cc4)c4c3C3CCC3C4)cc2[nH]1)C(C)C (stereo not drawn) [Example 36] | 10 | 935
CC(C)[C@H](NC(=O)OC(C)(C)C)C(=O)N1CCC[C@H]1c1ncc(-c2ccc(-c3ccc(-c4cnc([C@@H]5CCCN5C(=O)[C@@H](NC(=O)OC(C)(C)C)C(C)C)[nH]4)c4c3C3CCC3C4)cc2)[nH]1 (stereo partly drawn) [Example 10] | 927 | 4330
COC(=O)N[C@H](C(=O)N1CCC[C@H]1c1ncc(-c2ccc(-c3ccc(-c4ccc5nc([C@@H]6CCCN6C(=O)[C@@H](NC(=O)OC)C(C)C)[nH]c5c4)c4c3C3CCC3C4)nc2)[nH]1)C(C)C (stereo partly drawn) [Example 8] | 28 | 66
COC(=O)N[C@@H](C)C(=O)N1CCCC1C1=Nc2cc(-c3ccc(-c4cnc([C@@H]5CCCN5C(=O)[C@H](C)NC(=O)OC)[nH]4)c4c3CC3CCC43)ccc2C2(COC2)N1 (stereo partly drawn) [Example 5] | 119 | 1040
COC(=O)N[C@H](C(=O)N1C2CC2C[C@H]1c1ncc(-c2ccc(-c3ccc(-c4ccc5nc([C@@H]6CC7CC7N6C(=O)[C@@H](NC(=O)OC)C(C)C)[nH]c5c4)c4c3C3CCC3C4)cc2)[nH]1)C(C)C (stereo partly drawn) [Example 18] | 30 | 83
COC(=O)N[C@H](C(=O)N1CCC[C@H]1c1ncc(-c2ccc(-c3ccc(-c4cnc([C@@H]5CCCN5C(=O)[C@@H](NC(=O)OC)C(C)C)[nH]4)c4c3C3CCC3C4)cc2)[nH]1)C(C)C (stereo partly drawn) [Example 1] | 5 | 605
COC(=O)N[C@H](C(=O)N1CCC[C@H]1c1ncc(-c2ccc(-c3ccc(-c4ccc5nc([C@@H]6CCCN6C(=O)[C@@H](NC(=O)OC)C(C)C)[nH]c5c4)c4c3CC3CCC43)c3cnoc23)[nH]1)C(C)C (stereo partly drawn) [Example 24] | 118 | 207
COC(=O)N[C@H](C(=O)N1[C@@H]2CC[C@@H](C2)[C@H]1c1ncc(-c2ccc(-c3ccc(-c4ccc5nc([C@@H]6[C@H]7CC[C@H](C7)N6C(=O)[C@@H](NC(=O)OC)C(C)C)[nH]c5c4)c4c3C3CCC3C4)cc2)[nH]1)C(C)C (stereo partly drawn) [Example 19] | 44 | 217
CC(C)[C@H](NC(=O)Oc1ccccc1)C(=O)N1CC(C)(C)C[C@H]1c1ncc(-c2ccc(-c3ccc(-c4ccc5nc([C@@H]6CC(C)(C)CN6C(=O)[C@@H](NC(=O)Oc6ccccc6)C(C)C)[nH]c5c4)c4c3C3CCC3C4)cc2)[nH]1 (stereo partly drawn) [Example 16] | 879 | 2550
COC(=O)N[C@H](C(=O)N1CC(C)(C)C[C@H]1c1ncc(-c2ccc(-c3ccc(-c4ccc5nc([C@@H]6CC(C)(C)CN6C(=O)[C@@H](NC(=O)OC)C(C)C)[nH]c5c4)c4c3C3CCC3C4)cc2)[nH]1)C(C)C (stereo partly drawn) [Example 15] | 105 | 381
COC(=O)N[C@H](C(=O)N1CCC[C@H]1c1nc2ccc(-c3ccc(-c4ccc(-c5cnc([C@@H]6C7CCC(C7)N6C(=O)[C@@H](NC(=O)OC)C(C)C)[nH]5)cc4)c4c3C3CCC3C4)cc2[nH]1)C(C)C (stereo partly drawn) [Example 2] | 21 | 71
COC(=O)N[C@H](C(=O)N1C[C@@H](F)C[C@H]1c1ncc(-c2ccc(-c3ccc(-c4ccc5nc([C@@H]6C[C@H](F)CN6C(=O)[C@@H](NC(=O)OC)C(C)C)[nH]c5c4)c4c3C3CCC3C4)cc2)[nH]1)C(C)C (stereo partly drawn) [Example 9] | 14 | 35
COC(=O)NC(C(=O)N1CCCC1c1nc2ccc(-c3ccc(-c4ccc(-c5cnc(C6CC7CC7N6C(=O)C(NC(=O)OC)C(C)C)[nH]5)cc4)c4c3CC3CCC43)cc2[nH]1)C(C)C (stereo not drawn) [Example 37] | 16 | 63
COC(=O)N[C@H](C(=O)N1CC(F)(F)C[C@H]1c1ncc(-c2ccc(-c3ccc(-c4ccc5[nH]c([C@@H]6CC(F)(F)CN6C(=O)[C@@H](NC(=O)OC)C(C)C)nc5c4)c4c3C3CCC3C4)cc2)[nH]1)C(C)C (stereo partly drawn) [Example 12] | 27 | 80
COC(=O)NC(C(=O)N1CCCC1c1ncc(-c2ccc(-c3ccc(-c4ccc5nc(C6CCCN6C(=O)C(NC(=O)OC)C(C)C)[nH]c5c4)c4c3C3CCC3C4)cc2)[nH]1)C(C)C (stereo not drawn) [Example 38] | 13 | 58
COC(=O)N[C@H](C(=O)N1CCC[C@H]1c1nc(-c2ccc(-c3ccc(-c4ccc5nc([C@@H]6CCCN6C(=O)[C@@H](NC(=O)OC)C(C)C)[nH]c5c4)c4c3C3CCC3C4)c3c2CCC3)c[nH]1)C(C)C (stereo partly drawn) [Example 22] | 82 | 233
COC(=O)N[C@H](C(=O)N1CCC[C@H]1c1ncc(-c2ccc(-c3ccc(-c4ccc5nc([C@@H]6CCCN6C(=O)[C@@H](NC(=O)OC)C(C)C)[nH]c5c4)c4c3C3CCC3C4)c3ccccc23)[nH]1)C(C)C (stereo partly drawn) [Example 23] | 50 | 449
COC(=O)N[C@H](C(=O)N1CCCC1c1nc2ccc(-c3ccc(-c4ccc5nc([C@@H]6CCCN6C(=O)[C@@H](NC(=O)OC)C(C)C)[nH]c5c4)c4c3C3C(=O)CCC3C4)cc2[nH]1)C(C)C (stereo partly drawn) [Example 32] | 26 | 63
COC(=O)N[C@H](C(=O)N1CCC[C@H]1c1ncc(-c2ccc(-c3ncc(-c4ccc5nc([C@@H]6CCCN6C(=O)[C@@H](NC(=O)OC)C(C)C)[nH]c5c4)c4c3C3CCC3C4)cc2)[nH]1)C(C)C (stereo partly drawn) [Example 25] | 32 | 65
COC(=O)N[C@H](C(=O)N1CCC[C@H]1c1ncc(-c2ccc(-c3ccc(-c4cnc([C@@H]5CCCN5C(=O)[C@@H](NC(=O)OC)C(C)C)[nH]4)c4c3C3CCCC3C4C)cc2)[nH]1)C(C)C (stereo partly drawn) [Example 33] | 30 | 82
COC(=O)N[C@H](C(=O)N1CCC[C@H]1c1ncc(C#Cc2ccc(-c3ccc4nc([C@@H]5CCCN5C(=O)[C@@H](NC(=O)OC)C(C)C)[nH]c4c3)c3c2C2CCC2C3)[nH]1)C(C)C (stereo partly drawn) [Example 6] | 106 | 243
COC(=O)N[C@H](C(=O)N1CC2(CC2)C[C@H]1c1ncc(-c2ccc(-c3ccc(-c4ccc5nc([C@@H]6CC7(CC7)CN6C(=O)[C@@H](NC(=O)OC)C(C)C)[nH]c5c4)c4c3C3CCC3C4)cc2)[nH]1)C(C)C (stereo partly drawn) [Example 17] | 78 | 62
COC(=O)N[C@H](C(=O)N1CCC[C@H]1c1nc2ccc(-c3ccc(-c4ccc(-c5cnc([C@@H]6CC7CC7N6C(=O)[C@@H](NC(=O)OC)C(C)C)[nH]5)cc4)c4c3CC3CCC43)cc2[nH]1)C(C)C (stereo partly drawn) [Example 3] | 18 | 88
COC(=O)N[C@H](C(=O)N1CCC[C@H]1C(=O)Nc1ccc(-c2ccc(-c3ccc4nc([C@@H]5CCCN5C(=O)[C@@H](NC(=O)OC)C(C)C)[nH]c4c3)c3c2CC2CCC32)cc1)C(C)C (stereo partly drawn) [Example 27] | 672 | 1640
COC(=O)N[C@H](C(=O)N1CCCC[C@H]1c1ncc(-c2ccc(-c3ccc(-c4ccc5nc([C@@H]6CCCCN6C(=O)[C@@H](NC(=O)OC)C(C)C)[nH]c5c4)c4c3C3CCC3C4)cc2)[nH]1)C(C)C (stereo partly drawn) [Example 13] | 206 | 418
COC(=O)N[C@H](C(=O)N1CCC[C@H]1c1ncc(-c2ccc(-c3ccc(-c4ccc5nc([C@@H]6CCCN6C(=O)[C@@H](NC(=O)OC)C(C)C)[nH]c5c4)c4c3CC3CCC43)s2)[nH]1)C(C)C (stereo partly drawn) [Example 7] | 53 | 93
COC(=O)NC(C(=O)N1CCCC1c1ncc(-c2ccc(-c3ccc(-c4cnc(C5CCCN5C(=O)C(NC(=O)OC)C(C)C)[nH]4)c4c3C3CCC3C4)cc2)[nH]1)C(C)C (stereo not drawn) [Example 35] | 7 | 548
